Test results from ChEMBL document CHEMBL5365498, “Regulation of Eukaryotic Translation Initiation Factor 4E as a Potential Anticancer Strategy” (J Med Chem, 2023).

Tests used:
[1] = Anticancer activity against Cervical carcinoma cell line (unknown origin) assessed as cell growth inhibition; format: functional, cell-based
[2] = system: Melanoma tumor cell line; assay: Anticancer activity against Melanoma tumor cell line (unknown origin) assessed as cell growth inhibition; format: functional, cell-based
[3] = system: Lung cancer cell line; assay: Anticancer activity against Lung cancer cell line (unknown origin) assessed as cell growth inhibition; format: functional, cell-based
[4] = Anticancer activity against Breast carcinoma cell (unknown origin) assessed as cell growth inhibition; format: functional, cell-based
[5] = system: A549; assay: Anticancer activity against human A549 cells assessed as cell growth inhibition measured after 72 hrs by CCK-8 assay; format: functional, cell-based; conditions: A549, 72 h
[6] = target: Serine/threonine-protein kinase mTOR (Homo sapiens, UniProt P42345); assay: Inhibition of human mTOR (1360 to 2549 residues) measured after 2 hrs in presence of ATP by LANCE Ultra kinase assay
[7] = system: MCF7; assay: Anticancer activity against human MCF7 cells assessed as cell growth inhibition measured after 72 hrs by CCK-8 assay; format: functional, cell-based; conditions: MCF7, 72 h

Row | IC50 [2] [nM] | IC50 [3] [nM] | IC50 [5] [nM] | IC50 [6] [nM] | IC50 [7] [nM] | SMILES | IC50 [1] [nM] | IC50 [4] [nM]
1 | 20 | 20 | – | – | – | Oc1cccc(-c2nc(N3CCOCC3)c3oc4ncccc4c3n2)c1 [PI-103] | 20 | 20
2 | – | – | 230 | 23.2 | 600 | CNC(=O)Nc1ccc(-c2nc(N3CCOCC3)nc3c2C=NC3C2CCOCC2)cc1 (configuration not stated) | – | –
